Assay results from PubChem BioAssay (NCI).
Several values for one entry are separate records, joined by “and”; a condition that tells them apart may be missing. Identical values can stand only once.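 Briefly, cells in 96-well plates were exposed to five compound concentrations for 48 h, and endpoints were estimated by linear interpolation. Abbreviation: GI50, concentration required for 50% inhibition of growth. TGI marks complete inhibition of growth.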 Where a SMILES comes first, the peptide text is derived from it. The star is where a group is joined. Boc = CC(C)(C)OC(=O)*; OBn = c1ccc(CO*)cc1; Bn = c1ccc(C*)cc1

What was measured:
Experiment in all cases: DTP human tumour cell line panel, 48 h
A498 renal = system: A498 renal
CAKI-1 renal = system: CAKI-1 renal
M14 melanoma = system: M14 melanoma
MDA-MB-435 = system: MDA-MB-435
OVCAR-3 ovarian = system: OVCAR-3 ovarian
SF-268 CNS = system: SF-268 CNS
SF-295 CNS = system: SF-295 CNS
SK-MEL-28 melanoma = system: SK-MEL-28 melanoma
SN12C renal = system: SN12C renal
TK-10 renal = system: TK-10 renal
HOP-92 NSCLC = system: HOP-92 NSCLC
K-562 leukemia = system: K-562 leukemia
HS 578T breast = system: HS 578T breast

SMILES | TGI (A498 renal) | TGI (CAKI-1 renal) | TGI (M14 melanoma) | TGI (MDA-MB-435) | TGI (OVCAR-3 ovarian) | TGI (SF-268 CNS) [µM] | TGI (SF-295 CNS) [µM] | TGI (SK-MEL-28 melanoma) | TGI (SN12C renal) [µM] | TGI (TK-10 renal) [µM] | TGI (HOP-92 NSCLC) [µM] | TGI (K-562 leukemia) | TGI (HS 578T breast) | GI50 (M14 melanoma) | GI50 (SN12C renal) | GI50 (A498 renal) | GI50 (OVCAR-3 ovarian) | GI50 (SF-268 CNS) | GI50 (SF-295 CNS) | GI50 (SK-MEL-28 melanoma)
Cc1cc2nc3c(C#N)c(-c4ccccc4)/c(=C\Nc4cccc(C(F)(F)F)c4)c(=O)n3c2cc1C | > 100 µM | > 100 µM | > 100 µM | > 100 µM | 54.4 µM | > 100 | > 100 | > 100 µM | > 100 | > 100 |  |  |  |  |  |  |  |  |  | 
C(=N\NC1=NCCCN1)/c1ccc(-c2cn3cc(/C=N/NC4=NCCCN4)ccc3n2)cc1 | > 78.5 µM | > 100 µM | > 100 µM | > 100 µM | > 100 µM | > 100 | > 100 | > 100 µM | > 100 | > 100 | > 100 | > 84.3 µM |  |  |  |  |  |  |  | 
CC1(C)COC(c2cccc(C3=NC(C)(C)CO3)c2)=N1 |  | > 100 µM | > 100 µM | > 100 µM |  | > 100 |  | > 100 µM |  | > 100 | > 100 | > 100 µM |  |  |  |  |  |  |  | 
CC(C)CC(NC(=O)C(Cc1ccccc1)NC(=O)C(COCc1ccccc1)NC(=O)OC(C)(C)C)C(=O)OCc1ccccc1 (stereo not drawn) (Boc-Ser(Bn)-Phe-Leu-OBn; configuration not given here) | > 100 µM | > 100 µM | > 100 µM |  | > 100 µM | 43 | 51.1 | 42 µM | 63.9 | > 100 |  | 45.2 µM |  |  |  |  |  |  |  | 
CCCCc1ccc(N2C(=O)c3cc(C)cnc3S2(=O)=O)cc1 |  |  | > 100 µM | > 100 µM | > 100 µM | > 100 | > 100 | > 100 µM | > 100 |  | > 100 | > 100 µM | > 100 µM |  |  |  |  |  |  | 
CC(=O)OCc1ccc(-c2nc(C#N)c(N)o2)o1 |  | > 10 µM | > 10 µM | > 10 µM |  | > 10 | > 10 | > 10 µM | > 10 | > 10 | > 10 | > 10 µM | > 10 µM |  |  |  |  |  |  | 
O=c1[nH]c2ccc(CC(=S)N3CCN(c4ccccc4)CC3)cc2s1 | > 100 µM | > 100 µM | > 100 µM | > 100 µM | > 100 µM | > 100 | > 100 | > 100 µM | > 100 | > 100 |  | > 100 µM | > 100 µM |  |  |  |  |  |  | 
Fc1ccc(C(=NCc2ccccc2)N2CCOCC2)cc1 | > 100 µM | > 100 µM | > 100 µM | > 100 µM | > 100 µM | > 100 | > 100 | > 100 µM | > 100 | > 100 |  | > 100 µM | > 100 µM |  |  |  |  |  |  | 
COc1ccc(NS(=O)C2CCCCC2)cc1 (stereo not given) |  | > 100 µM | > 100 µM | > 100 µM | > 100 µM | > 100 | > 100 | > 100 µM | > 100 | > 100 |  | > 100 µM | > 100 µM |  |  |  |  |  |  | 
Cc1c(Cl)cccc1NC(=O)C(=O)C1C(=O)NC(=O)NC1=O | > 100 µM | > 100 µM | > 100 µM |  | > 100 µM | > 100 | > 100 | > 100 µM | > 100 | > 100 | > 100 | > 100 µM |  |  |  |  |  |  |  | 
COC(=O)C1Cc2c([nH]c3ccccc23)-c2[nH]c3ccccc3c2CC(NC(C)=O)C(=O)NCC(=O)N1 (stereo not given) |  | > 100 µM |  | > 100 µM | > 100 µM | > 100 | > 100 | > 100 µM | > 100 | > 100 | > 100 | > 100 µM | > 100 µM |  |  |  |  |  |  | 
COCOc1cc(OC)ccc1C=O |  | > 100 µM | > 100 µM | 40.6 µM | 63.8 µM | > 100 | > 100 | > 100 µM | > 100 | > 100 |  | > 100 µM | 64.9 µM |  |  |  |  |  |  | 
CC1OC(OC2C(CO)OC(O[C@H]3CC[C@@]4(C)C(=CC[C@H]5[C@@H]6C[C@@H]7O[C@](O)(CC[C@@H](C)COC8OC(CO)C(O)C(O)C8O)[C@@H](C)[C@@H]7[C@@]6(C)CC[C@@H]54)C3)C(OC3OC(C)C(O)C(O)C3O)C2O)C(O)C(O)C1O (stereo not given in full) | > 100 µM | 8.61 µM | 4.69 µM | 9.32 µM | 29.8 µM | 8.33 | 11.8 | 7.55 µM | 6.95 | 22.8 |  | > 43.4 µM | > 100 µM | 2.24 µM | 2.71 µM |  |  |  |  | 
COC(=O)CSc1[nH]c2nc(C)nc(Nc3ccccc3)c2c1C#N |  | > 10 µM | > 10 µM | > 10 µM |  | > 10 | > 10 | > 10 µM | > 10 | > 10 | > 10 | > 10 µM |  |  |  |  |  |  |  | 
C=C1C(=O)OC2C(C)C3C=CC(=O)[C@@]3(C)C(OC(=O)/C(C)=C/C)C1[C@@H]2OC(C)=O (stereo not given in full) | 2.81 µM | 1.61 µM | 1.96 µM | 0.86 µM | 0.744 µM | 3.22 | 2.81 | 1.76 µM | 1.24 | 1.57 | 1.56 | 16 µM |  |  |  |  |  |  |  | 
COC(=O)CCCc1ccc2c(c1)CCC2 |  | > 100 µM | > 100 µM | > 100 µM | > 100 µM | > 100 | > 100 | > 100 µM | > 100 | > 100 | > 100 |  | > 100 µM |  |  |  |  |  |  | 
CC(=O)OCC1OC(n2c(-c3ccccc3)c(N=Nc3ccc(Cl)cc3)c(C)c(C#N)c2=S)C(OC(C)=O)C(OC(C)=O)C1OC(C)=O (stereo not given) | 43.5 µM and 70.7 µM | 63.9 µM and > 100 µM | 32.4 µM and > 100 µM | 41.1 µM and > 100 µM | 52.5 µM and > 100 µM | > 100 | > 100 | 16.9 µM and > 100 µM | > 100 | > 100 |  | 28.6 µM and > 100 µM | 94 µM and 96.9 µM | 9.33 µM and 71.1 µM | 12.2 µM and > 100 µM | 2.78 µM and 19.1 µM | 4.77 µM and 39.8 µM | 14.7 µM and 39.3 µM | 25.2 µM and 56.7 µM | 4.58 µM and 30.3 µM
